pEC50, pIC50: −log10 of the molar value.
How the values were obtained:
lipoprotein lipase (LPL) = target: T1, lipoprotein lipase (LPL) (Mus musculus, UniProt P11152); experiment: Inhibition of LPL (lipogenesis assay), MUF oleate hydrolysis; format: biochemical; conditions: LPL obtained from differentiated 3T3-L1 cells; mean values of at least 2 independent tests
T1 construct: endogenous in cells; host or cells: differentiated 3T3-L1 cells (mouse); heparin-released supernatant
T1 sequence (P11152 28-474): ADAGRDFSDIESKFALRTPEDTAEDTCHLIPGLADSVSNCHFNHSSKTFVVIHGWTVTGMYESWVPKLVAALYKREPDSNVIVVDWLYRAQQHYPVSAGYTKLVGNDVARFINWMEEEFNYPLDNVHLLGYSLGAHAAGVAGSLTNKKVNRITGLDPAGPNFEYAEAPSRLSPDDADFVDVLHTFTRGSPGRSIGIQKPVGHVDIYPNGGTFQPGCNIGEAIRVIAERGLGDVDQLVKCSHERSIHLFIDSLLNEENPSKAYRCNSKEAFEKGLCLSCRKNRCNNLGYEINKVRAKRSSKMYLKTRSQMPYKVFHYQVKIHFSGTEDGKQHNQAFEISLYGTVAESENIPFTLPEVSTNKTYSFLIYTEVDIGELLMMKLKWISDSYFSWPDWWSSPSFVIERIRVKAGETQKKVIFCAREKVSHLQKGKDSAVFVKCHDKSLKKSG
From the text: Lipogenesis is perceived as the storage of triglycerides in adipocytes. The inhibition of this storage can take place by means of the inhibition of the activity of extracellular lipoprotein lipase (LPL) in that the hydrolysis of extracellular triglycerides and therefore the absorption of free fatty acids by adipocytes are reduced. As a preliminary test, the inhibition of pancreatic lipase (PL) is investigated.
The results of the inhibition of the PL are used as a preliminary test and are confirmed on LPL. To obtain LPL, 3T3-L1 cells (mouse embryonic fibroblast-like adipocyte cell line) are seeded in a 6-well plate with collagen I-coating in a concentration of 3×10^5 cells/well. The cultivation and differentiation of the cells takes place analogously to the details in Example 2 (adipogenesis assay). During the differentiation LPL is increasingly expressed. The LPL is present in a membrane-bound state and is released by one hour incubation with heparin solution at 2-8° C. to the supernatant of the cells.
The LPL thus obtained, in the presence of test substances in different use concentrations, has methylumbelliferyl oleate (MUF oleate) added as the substrate. Fluorescent methylumbelliferyl (MUF) is produced by hydrolysis of the MUF oleate by LPL and is quantified. The inhibition of the hydrolysis of the MUF oleate is a measure of the inhibition of the activity of the LPL and therefore the lipogenesis.
[formula] wherein MUF test substance=MUF concentration of the wells with test substance and with LPL MUF control=MUF concentration of the wells without test substance, but with LPL MUF control without LPL=MUF concentration of the wells without test substance and without LPL
The IC50 is calculated from the inhibition of the LPL [%] in a series of dilutions of tested samples. This is the concentration at which the activity of the LPL and therefore the lipogenesis is 50% inhibited.

3T3-L1 cells = experiment: Lipolysis assay, in vitro on 3T3-L1 cells, free glycerol release; format: cell-based; conditions: Mus musculus; differentiated 3T3-L1 cells, about 20 hours of incubation; mean values from at least 2 independent tests; read-out: Stimulation of lipolysis EC50
Procedure: 3T3-L1 cells (mouse embryonic fibroblast-like adipocyte cell line) are seeded in a 48-well plate with collagen I-coating in a concentration of 3×10^4 cells/well. The cultivation and differentiation of the cells takes place analogously to the details in Example 2 (adipogenesis assay).
Various concentrations of the test substances are applied to the cells in DMEM, with bovine serum albumen added. After about 20 hours of incubation, the quantification of free glycerol in the supernatant of the cells takes place, which is released by the cells after hydrolysis of triglycerides in the cells and is a measure of the lipolysis of the cells. The quantification of the free glycerol is carried out based on an enzymatic method with a free glycerol reagent.
(§1) The stimulation of the lipolysis in the presence of test substances is calculated according to the following equation:
[formula] wherein A test substance=absorption of the wells with test substance and with cells A test substance without cells=absorption of the wells with test substance without cells (absorption control) A control=absorption of the wells without test substance, but with cells A control without cells=absorption of the wells without test substance and without cells
The EC50 is calculated from the lipolysis stimulation [%] in a series of dilutions of tested samples. This is the concentration at which the lipolysis is 50% stimulated.

[1] = tested on: ex vivo pig skin model including subcutis fat layer; experiment: Lipolysis assay, ex vivo pig skin model, free glycerol release; format: cell-based; conditions: conc. 0.1% in cosmetic test preparation, topical on ex vivo pig skin, 24 hours, versus placebo
From the text: Full thickness pig skin patches (pig skin model including subcutis fat layer as described in EP 1 939 279) are excised from the dorsal part of young pig slaughtered for meat. The ex vivo pig skin models have a size of 7×3 mm (diameter×height). They are placed on a titanium grid dipped in culture medium. On top of the skin samples formulations are applied. In parallel to a cosmetic test preparation containing one or more compounds of formula (I) a placebo preparation without any compound of formula (I) is applied as reference (blank).
After 24 hours of incubation, the quantification of free glycerol in the medium surrounding the pig skin models was performed. The glycerol is released by the cells after hydrolysis of triglycerides in the cells of the adipose tissue and is a measure of the lipolysis of the pig skin models. The quantification of the free glycerol is carried out based on an enzymatic method with a free glycerol reagent.
Cosmetic Test Preparation:
Phases A and B are heated to 70° C. separately. Pemulen TR1 as well as Ultrez-21 are dispersed in phase B when heated to 70° C. Phase B/C is added to phase A by mixing with an Ultra Turrax, followed by emulsifying. Phase D is slowly added to phase A/B/C using a paddle mixer and a pH 5.5-6 is adjusted. The formulation is cooled down while mixing with a paddle mixer. Phase E is prepared by dissolving one or more compounds of formula (I) in Hydrolite-5. Subsequently, phase E is added to the mixture of phase A-D.
as §1
[formula] wherein A test substance=absorption of the wells with medium of ex vivo skin models, on which the formulation containing the test substance was applied A placebo=absorption of the wells with medium of ex vivo skin models, on which the placebo without test substance was applied

3T3 cells = experiment: ATP assay, inhibition of proliferation; format: cell-based; conditions: Mus musculus, NIH3T3, 48 h, non-cytotoxic dilutions, mean values of at least 2 independent tests
Procedure: 3T3 cells (mouse […] fibroblasts) were seeded in 96-well plates. After 24 h cultivation at 37° C. and 5% CO2 in DMEM (Dulbecco's Modified Eagle Medium), cells were treated with test substances for another 48 h. […] ATP content in the cells is measured by
The inhibition of proliferation was calculated by:
[formula] wherein RLU test substance=relative luminescent units of the wells with test substance and with cells RLU control=relative luminescent units of the wells without test substance, but with cells RLU control without cells=relative luminescent units of the wells without test substance and without cells
The IC50 is calculated from the proliferation inhibition [%] in a series of non-cytotoxic dilutions of tested samples. This is the concentration at which the proliferation is 50% inhibited.

| pIC50 (lipoprotein lipase (LPL)) | Compound | pEC50 (3T3-L1 cells) | Stimulation of lipolysis [1] [%] | pIC50 (3T3 cells) |
| --- | --- | --- | --- | --- |
| 2.84 | CCC(C)NC(=O)OC1CCCC(C)C1C (stereo not drawn) [BIO1845, sec-Butyl-carbamic acid 2,3-dimethyl-cyclohexyl ester] | 3.72 | 29 | 3.46 |
| 2.92 | CCCCNC(=O)OC1CCCCC1C(C)C (stereo not drawn) [BIO1841, Butyl-carbamic acid 2-isopropyl-cyclohexyl ester] | 3.64 | 25 | 3.59 |
| 3.21 | CCCCNC(=O)OC1C(C)CCC(C)C1C (stereo not drawn) [BIO1617, Butyl-carbamic acid 2,3,6-trimethyl-cyclohexyl ester] | 3.01 | 21 | 3.61 |
